The target of one assay is T1, FLT3 ITD (Homo sapiens, UniProt P36888).
T1 construct: fused on or other part: DNA tag for qPCR read-out (T7 phage fusion, or DNA-tagged kinase made in HEK-293 cells)
T1 sequence (P36888 1-993): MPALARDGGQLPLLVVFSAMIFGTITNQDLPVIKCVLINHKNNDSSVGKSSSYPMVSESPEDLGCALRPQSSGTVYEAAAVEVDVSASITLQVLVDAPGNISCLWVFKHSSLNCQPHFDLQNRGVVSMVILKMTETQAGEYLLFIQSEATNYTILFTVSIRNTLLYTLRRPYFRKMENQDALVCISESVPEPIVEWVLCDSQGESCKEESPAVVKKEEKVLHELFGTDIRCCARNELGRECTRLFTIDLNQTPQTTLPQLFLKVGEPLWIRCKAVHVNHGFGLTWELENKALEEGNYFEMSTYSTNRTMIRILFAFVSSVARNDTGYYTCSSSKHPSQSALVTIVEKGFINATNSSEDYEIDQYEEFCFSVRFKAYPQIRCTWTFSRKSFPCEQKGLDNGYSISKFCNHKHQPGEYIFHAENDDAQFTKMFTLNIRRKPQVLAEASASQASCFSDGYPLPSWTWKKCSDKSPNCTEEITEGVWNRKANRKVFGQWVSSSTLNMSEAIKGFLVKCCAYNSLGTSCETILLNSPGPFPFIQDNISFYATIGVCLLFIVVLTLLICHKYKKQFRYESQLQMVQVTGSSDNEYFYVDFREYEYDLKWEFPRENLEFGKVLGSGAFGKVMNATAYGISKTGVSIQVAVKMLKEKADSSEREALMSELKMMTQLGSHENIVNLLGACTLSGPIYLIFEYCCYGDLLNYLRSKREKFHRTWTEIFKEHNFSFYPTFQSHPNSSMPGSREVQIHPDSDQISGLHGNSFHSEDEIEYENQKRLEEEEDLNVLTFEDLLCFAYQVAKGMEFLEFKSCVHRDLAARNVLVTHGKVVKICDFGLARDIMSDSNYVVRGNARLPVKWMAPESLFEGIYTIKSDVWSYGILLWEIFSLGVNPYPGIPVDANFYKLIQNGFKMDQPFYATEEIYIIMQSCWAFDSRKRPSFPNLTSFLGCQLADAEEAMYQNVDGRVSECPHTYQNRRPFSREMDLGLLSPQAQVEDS
Description: DiscoverX KINOMEscan competition binding, FLT3 ITD. As to conditions: no ATP. From the text: (§1) Kinase binding data were obtained for various exemplary compounds prepared according to Examples 2-15 using the DiscoverX KINOMEscan® active site-directed competition binding site-directed assay protocol described below. […] As a result, the data report thermodynamic interaction affinities (Kd values), rather than IC50 values that are dependent on ATP concentrations. The assay uses a DNA-tagged version of the protein kinase, and an immobilized ligand bound to a solid support. Compounds that directly or indirectly prevent kinase binding to the immobilized ligand reduce the amount of kinase captured on the solid support, which is detected using an ultra-sensitive qPCR method. Affinity constants reported from the assay have been reported to be independent of the immobilized ligand used that is coupled to the solid support (See supplemental information in Fabian, M. A. et. al., (2005) Nat. […] Wodicka, L. […] Biol. 17, 1241-1249.) Kinase-tagged T7 phage strains were prepared in an E. coli host derived from the BL21 strain. E. coli were grown to log-phase and infected with T7 phage and incubated with shaking at 32° C. until lysis. […] Kds were determined using an 11-point 3-fold compound dilution series with three DMSO control points. […] The kinase concentration in the eluates was measured by qPCR. Binding constants (Kds) were calculated with a standard dose-response curve using the Hill equation. […]

For a further assay, the target named is T2, FLT3 (Homo sapiens, UniProt P36888).
T2 sequence (P36888 27-993): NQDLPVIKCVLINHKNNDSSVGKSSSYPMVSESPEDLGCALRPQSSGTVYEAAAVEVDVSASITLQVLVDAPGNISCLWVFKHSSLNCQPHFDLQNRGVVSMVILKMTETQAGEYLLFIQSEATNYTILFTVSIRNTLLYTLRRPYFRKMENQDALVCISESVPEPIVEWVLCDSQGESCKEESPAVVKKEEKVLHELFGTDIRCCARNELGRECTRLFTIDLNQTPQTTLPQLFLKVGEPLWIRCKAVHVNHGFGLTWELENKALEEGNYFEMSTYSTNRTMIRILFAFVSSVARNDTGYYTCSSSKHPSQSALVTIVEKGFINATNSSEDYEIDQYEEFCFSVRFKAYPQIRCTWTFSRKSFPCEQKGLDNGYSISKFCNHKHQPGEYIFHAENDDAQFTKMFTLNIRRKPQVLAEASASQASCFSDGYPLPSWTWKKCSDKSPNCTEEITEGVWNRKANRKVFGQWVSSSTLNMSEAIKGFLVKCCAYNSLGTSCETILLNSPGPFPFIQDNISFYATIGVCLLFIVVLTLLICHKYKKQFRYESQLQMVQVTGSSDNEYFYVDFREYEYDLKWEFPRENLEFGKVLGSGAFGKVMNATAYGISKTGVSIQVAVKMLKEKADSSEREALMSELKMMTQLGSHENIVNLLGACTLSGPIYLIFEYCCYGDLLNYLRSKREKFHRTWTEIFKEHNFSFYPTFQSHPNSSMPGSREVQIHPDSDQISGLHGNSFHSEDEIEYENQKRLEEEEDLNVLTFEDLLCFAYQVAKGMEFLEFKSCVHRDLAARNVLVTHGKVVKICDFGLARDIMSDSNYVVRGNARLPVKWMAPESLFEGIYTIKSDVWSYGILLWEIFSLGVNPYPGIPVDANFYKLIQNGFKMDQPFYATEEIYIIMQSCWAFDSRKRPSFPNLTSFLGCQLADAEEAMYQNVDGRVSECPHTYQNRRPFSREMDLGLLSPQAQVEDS
Briefly: DiscoverX KINOMEscan competition binding, FLT3. As to conditions: no ATP. Also noted: purchased RBC (Reaction Biology) HotSpot assay.
Description: as §1

These results are taken from patent US20250368648A1, “MULTI-CYCLIC IRAK AND FLT3 INHIBITING COMPOUNDS AND USES THEREOF” (CHILDREN'S HOSPITAL MEDICAL CENTER, priority 2022, published 2025).

Bounds are passed on as bounds.

As to `COc1cc2ncc(-c3nc(N[C@H]4CNCC[C@@H]4F)c(F)cc3F)n2nc1C1CCC1` [Compound 15a, 6-(6-cyclobutyl-7-methoxyimidazo[1,2-b]pyridazin-3-yl)-3,5-difluoro-N-((3S,4S)-4-fluoropiperidin-3-yl)pyridin-2-amine], the dissociation constant Kd (in general, the constant that tells how readily two partners part at equilibrium) on FLT3 ITD is 430 pM; on FLT3, below 170 pM.
